Data as given in paper PMC8704432, “Isolation, Structure Determination of Sesquiterpenes from Neurolaena lobata and Their Antiproliferative, Cell Cycle Arrest-Inducing and Anti-Invasive Properties against Human Cervical Tumor Cells” (Pharmaceutics, 2021).
Like-named read-outs stand apart in the source and are kept apart here.

Columns and labels:
[1] = tested on: HeLa (HPV 18+) human cervical cell line; test: Antiproliferative MTT assay, HeLa; type: cell-based; settings: for inhibition at 10 µM / inhibition at 30 µM: read-out: Growth Inhibition Values (%) ± SEM; for IC50: read-out: Calculated IC50 Values (μM) [95% CI]
Method: (§1) Antiproliferative effect of the isolated compounds were determined in vitro using SiHa (HPV 16+), HeLa (HPV 18+), C33A (HPV negative) human cervical cell lines, NIH-3T3 mouse embryonic and MRC-5 human fibroblast cells by means of MTT ([3-(4,5-dimethylthiazol-2-yl)-2,5-diphenyltetrazolium bromide]) assay. Briefly, a limited number of human cancer cells (5000/well for SiHa and HeLa cells, 10,000/well in case of C33A cells) were seeded onto a 96-well microplate and became attached to the bottom of the well overnight. On the second day of the procedure, the test substances were added in two concentrations (10.0 and 30.0 µM) in order to obtain preliminary data and then the compounds were applied in serial dilution (applied final concentrations were: 0.1, 0.3, 1.0, 3.0, 10.0, 30.0 µM). Further details of the experiment were described in ref. [30]. All in vitro experiments were carried out on two 96-well dishes with at least five parallel wells [31].

[2] = tested on: C33A (HPV negative) human cervical cell line; test: Antiproliferative MTT assay, C33A; type: cell-based; settings: for inhibition at 10 µM / inhibition at 30 µM: read-out: Growth Inhibition Values (%) ± SEM
Method: as §1

[3] = tested on: SiHa (HPV 16+) human cervical cell line; test: Antiproliferative MTT assay, SiHa; type: cell-based; settings: for inhibition at 10 µM / inhibition at 30 µM: read-out: Growth Inhibition Values (%) ± SEM; for IC50: read-out: Calculated IC50 Values (μM) [95% CI]
Method: as §1

[4] = tested on: NIH/3T3 (mouse embryonic fibroblast); test: Antiproliferative MTT assay, NIH/3T3; type: cell-based
Method: as §1

[5] = tested on: MRC-5 (human fibroblast); test: Antiproliferative MTT assay, MRC-5; type: cell-based
Method: as §1

[6] = tested on: SiHa cells; test: Cell cycle analysis by flow cytometry; type: cell-based, human; settings: 48 or 72 h treatment
Method: Cell cycle analysis was performed as described in [32, 33].

[7] = tested on: SiHa cells; test: Wound healing assay; type: cell-based, human
Method: In order to assess antimetastatic activity of the tested compound, wound healing assay was performed. The assay was done with specific wound healing assay chambers (Ibidi GmbH, Gräfelfing, Germany). SiHa cells were collected and 35,000 cells were seeded into both chambers of the insert. Cells were let to be attached to the plate surface during an overnight incubation at 37 °C in 5% CO2 atmosphere and then the inserts were removed. Cell debris was removed by a washing step with PBS. Test compounds were added to the wells in increasing concentrations in 2% FBS containing medium for 24 and 48 h. Migration of the cells into the wound site was visualized by phase-contrast inverted microscope (Axiovert 40, Zeiss, Thornwood, NY, USA). Images were taken with CCD camera at definite intervals and the migration of the cells was calculated as the ratio of wound closure by ImageJ software.

[8] = tested on: GLC4 human small cell lung carcinoma; parameters: method as in PMID 8657743; settings: GLC4 cells; read-out: IC50 (cytotoxicity); cited from earlier work
[9] = tested on: COLO 320 human colorectal cancer cells; parameters: method as in PMID 8657743; settings: COLO 320 cells; read-out: IC50 (cytotoxicity); cited from earlier work
[10] = Homo sapiens, C-33-A, read-out: Calculated IC50 Values (μM) [95% CI], C33A, MTT
[11] = read-out: Calculated IC50 Values (μM) [95% CI], C33A, MTT
[12] = Mus musculus, NIH3T3, NIH/3T3, MTT, read-out: Calculated IC50 Values (μM) [95% CI]
[13] = Mus musculus, NIH3T3, NIH/3T3, 10 μM, MTT, read-out: Growth Inhibition Values (%) ± SEM
[14] = Mus musculus, NIH3T3, NIH/3T3, 30 μM, MTT, read-out: Growth Inhibition Values (%) ± SEM
[15] = NIH/3T3, MTT, read-out: Calculated IC50 Values (μM) [95% CI]
[16] = Homo sapiens, MRC5, MRC-5, MTT, read-out: Calculated IC50 Values (μM) [95% CI]
[17] = Homo sapiens, MRC5, MRC-5, 10 μM, MTT, read-out: Growth Inhibition Values (%) ± SEM
[18] = Homo sapiens, MRC5, MRC-5, 30 μM, MTT, read-out: Growth Inhibition Values (%) ± SEM
[19] = MRC-5, MTT, read-out: Calculated IC50 Values (μM) [95% CI]
[20] = Mus musculus, NIH3T3, read-out: Growth Inhibition Values (%) ± SEM
[21] = Homo sapiens, MRC5, read-out: Growth Inhibition Values (%) ± SEM

Compound	inhibition at 10 µM ([1]; Homo sapiens, 10 μM) [%]	inhibition at 30 µM ([1]; Homo sapiens, 30 μM) [%]	IC50 ([1]; Homo sapiens) [µM]	IC50 [2, 10] [µM]	inhibition at 10 µM ([2]; Homo sapiens, C-33-A) [%]	inhibition at 30 µM ([2]; Homo sapiens, C-33-A) [%]	inhibition at 10 µM ([3]; Homo sapiens, 10 μM) [%]	inhibition at 30 µM ([3]; Homo sapiens, 30 μM) [%]	IC50 ([3]; Homo sapiens) [µM]	further results
C=C1C(=O)OC2C=C(C)C(OC(C)=O)CC3OC3(C)CC(OC(=O)CC(C)C)C12 (centres unmarked) [Compound 6, Lobatolide C]	< 20	91.9 ± 1.23	15.7	3.2 to 3.6	96.55 ± 0.22	96.72 ± 0.33	84.2 ± 2.32	84.8 ± 1.89	3.2 to 3.6	IC50 [2, 11]: 3.53 µM; IC50 [3]: 3.24 µM; IC50 [4, 12]: > 11 µM; inhibition at 10 µM [4, 13]: 40.7 ± 2.92%; inhibition at 30 µM [4, 14]: 96.8 ± 0.25%; IC50 [4, 15]: 11.2 µM; IC50 [5, 16]: > 11 µM; inhibition at 10 µM [5, 17]: < 20%; inhibition at 30 µM [5, 18]: 73 ± 1.64%; IC50 [5, 19]: 11.9 µM; Cell cycle distribution [6]: significant concentration-dependent accumulation of cells in the S phase; Wound closure ([7]; 1.5 µM, 48 h (control 70%)): 47%; Wound closure ([7]; 3 µM, 24 h (control 30%)): 12%; Wound closure ([7]; 3 µM, 48 h (control 70%)): 18%
C=C1C(=O)O[C@@H]2/C=C(/C)C3=CC(=O)[C@](C)(O3)[C@H](O)[C@@H](OC(=O)CC(C)C)[C@@H]12 [Lobatin B]	–	–	–	–	–	–	–	–	–	IC50 [8]: 0.6 µM; IC50 [9]: 1.1 µM
C=C1C(=O)O[C@@H]2/C=C(/C)C3=CC(=O)[C@](C)(O3)[C@H](OC(=O)CC(C)C)[C@@H](O)[C@@H]12 [Compound 3, 8β-hydroxy-9α-isovaleroyloxyatripliciolide]	91.42 ± 0.34	96.6 ± 1.17	4.76	6.82	79.2 ± 3.33	94.46 ± 0.21	60.6 ± 1.58	78.8 ± 1.23	7.81	IC50 [4, 12]: 4.12 µM; inhibition at 10 µM [4, 13]: 92.96 ± 0.56%; inhibition at 30 µM [4, 14]: 98.15 ± 0.13%; IC50 [5, 16]: 6.67 µM; inhibition at 10 µM [5, 17]: 88.1 ± 1.22%; inhibition at 30 µM [5, 18]: 97.58 ± 0.1%
COC[C@H]1C(=O)O[C@@H]2C[C@@H](C)/C=C\C(=O)[C@](C)(O)[C@H](OC(C)=O)[C@@H](OC(=O)CC(C)C)[C@H]21 [Compound 5, Lobatolide B]	< 20	63.9 ± 3.23	–	–	50.5 ± 3.49	90 ± 1.4	< 20	65.5 ± 2.52	–	–
C=C1C(=O)O[C@@H]2C[C@@H](C)/C=C\C(=O)[C@@](C)(O)[C@H](OC(C)=O)[C@@H](OC(=O)CC(C)C)[C@@H]12 [Neu B, neurolenin B, reference compound]	94 ± 0.59	94.81 ± 0.37	< 1.4	–	98.29 ± 0.03	97.91 ± 0.15	88.73 ± 0.36	93.42 ± 0.33	< 1.4	IC50 [1]: 1.24 µM; IC50 [2, 11]: < 1.4 µM; IC50 [3]: 1.33 µM; IC50 [4, 12]: < 1.4 µM; inhibition at 10 µM [4, 13]: 98.11 ± 0.09%; inhibition at 30 µM [4, 14]: 98.02 ± 0.05%; IC50 [4, 15]: 1.31 µM; IC50 [5, 16]: 5.18 µM; inhibition at 10 µM [5, 17]: 94.26 ± 0.23%; inhibition at 30 µM [5, 18]: 97.46 ± 0.21%; IC50 [8]: 1.1 µM; IC50 [9]: 1.2 µM
CC(C)[C@@H]1CC[C@@]2(C)C(=O)CCC(CO)=C[C@@H]12 [Compound 10, (+)-aphanamol I]	< 20	36.5 ± 1.55	–	–	< 20	< 20	< 20	< 20	–	–
C=C1C(=O)O[C@@H]2[C@@H](CC3=C4[C@@H](C[C@@H](C)/C=C\C(=O)[C@](C)(O)[C@H](OC(C)=O)[C@H]4OC(=O)CC(C)C)OC3=O)[C@@H](C)C3=CC(=O)[C@](C)(O3)[C@H](O)[C@@H](OC(=O)CC(C)C)[C@@H]12 [Compound 7, Lobatolide D]	91.87 ± 0.72	96.44 ± 0.1	6	6.62	94.66 ± 0.19	95.18 ± 0.31	77.2 ± 1.04	93.5 ± 0.42	6.02	IC50 ([4]; Mus musculus, NIH3T3, read-out: Calculated IC50 Values (μM) [95% CI]): 5.68 µM; inhibition at 10 µM [4, 20]: 90.7 ± 1.2%; inhibition at 30 µM [4, 20]: 98.06 ± 0.19%; IC50 ([5]; Homo sapiens, MRC5, read-out: Calculated IC50 Values (μM) [95% CI]): 15.4 µM; inhibition at 10 µM [5, 21]: < 20%; inhibition at 30 µM [5, 21]: 97.63 ± 0.27%
C=C1C(=O)O[C@@H]2/C=C(/C)C3=CC(=O)[C@](C)(O3)[C@H](OC(C)=O)[C@@H](OC(=O)CC(C)C)[C@@H]12 [Compound 4, Lobatin C]	83.9 ± 1.8	90.1 ± 1.03	5.1	2.05	97.27 ± 0.18	97.19 ± 0.41	79.8 ± 1.47	94.62 ± 0.27	2.22	–
COC[C@@H]1C(=O)O[C@@H]2C[C@@H](C)C3=CC(=O)[C@](C)(O3)[C@H](O)[C@@H](OC(=O)CC(C)C)[C@@H]12 [Compound 2, Lobatolide A]	< 20	21.6 ± 2.42	–	–	< 20	36.6 ± 2.95	< 20	< 20	–	–
N.N.[Cl][Pt][Cl] [Cispl., cisplatin, reference compound]	–	–	–	–	–	–	–	–	–	Growth Inhibition Values (%) ± SEM ([1]; 10 μM): 32.23 ± 1.16%; Growth Inhibition Values (%) ± SEM ([1]; 30 μM): 93.70 ± 0.82%; IC50 [1]: 12.1 µM; Growth Inhibition Values (%) ± SEM ([2]; C33A, 10 μM, MTT): 77.17 ± 1.21%; Growth Inhibition Values (%) ± SEM ([2]; C33A, 30 μM, MTT): 97.50 ± 0.13%; IC50 ([2]; C33A, MTT, read-out: Calculated IC50 Values (μM) [95% CI]): 5.85 µM; Growth Inhibition Values (%) ± SEM ([3]; 10 μM): 60.98 ± 0.92%; Growth Inhibition Values (%) ± SEM ([3]; 30 μM): 88.95 ± 0.53%; IC50 [3]: 4.29 µM; Growth Inhibition Values (%) ± SEM ([4]; NIH/3T3, 10 μM, MTT): 73.88 ± 0.46%; Growth Inhibition Values (%) ± SEM ([4]; NIH/3T3, 30 μM, MTT): 97.10 ± 0.15%; IC50 [4, 15]: 5.5 µM; Growth Inhibition Values (%) ± SEM ([5]; MRC-5, 30 μM, MTT): 70.65 ± 1.34%; IC50 [5, 19]: 5.77 µM
C=C1C(=O)O[C@@H]2C[C@@H](C)C3=CC(=O)[C@](C)(O3)[C@H](OC(=O)CC(C)C)[C@@H](O)[C@@H]12 [Compound 1, 8β-Hydroxy-9α-isovaleroyloxycalyculatolide]	20.4 ± 0.62	81.8 ± 1.7	16.8	5.89	90 ± 2.54	91.79 ± 0.22	77.93 ± 0.56	92.1 ± 0.73	4.86	–
C=C1CC[C@@H](O)[C@]2(C)CC[C@@H](C(C)C)[C@H](O)[C@@H]12 [Compound 9, Volenol]	< 20	37.3 ± 2.65	–	–	< 20	26.7 ± 2.73	< 20	35.7 ± 1.29	–	–
